According to the supplement of paper PMC11208160:

Test: recombinant UMI read abundance after kanamycin selection (control-corrected) (log10(CPM+1)); higher = more efficient recombination; extreme values may be limits of the assay; sequences stand for … in AGTGCAGAGAAAATCGGCCAGTTTTCTCTGCCTGCAGTCCGCATGCCGTGGGACCCCTTGGGTTCTAACCTGTTGCCTAGATTTATGCAGCGGACTGCCTTTCTCCCAAAGTGATAAACCGG…AGGTTGGTTTCACT; site = the 11-nt donor
Outline: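 Two replicates each of selected and unselected plating were used in this pooled Escherichia coli screen of donor and donor-binding-loop pairs for the IS621 bridge recombinase. Selection was with IPTG (0.07 mM) and kanamycin. Counts of recombinant UMIs, amplified across the donor–target junction, were converted to CPM, averaged, scaled by control-derived factors and reported as log10(CPM+1).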
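Further: IS621 bridge recombinase in Escherichia coli cells against a fixed T5 target plasmid.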

| Sequence | recombinant UMI read abundance (log10) |
| --- | --- |
| CGGGCACCATGGACCGGTTTTCCCGGTAATCCGTATTTGCA (site AGGGCACCTTG) | 0.0117 |
| CGGGCACCATGGACCGGTTTTCCCGGTAATCCGTATTTGCA (site CGGGCACCTTG) | 0 |
| CGGGCACCATGGACCGGTTTTCCCGGTAATCCGTATTTGCA (site GGGGCACCTTG) | 0.00963 |
| CGGGCACCATGGACCGGTTTTCCCGGTAATCCGTATTTGCA (site TGGGCACCTTG) | 0 |
| CGGGGACCATGGACCGGTTTTCCCGGTAATCCGTATTTGAT (site CGGGAACCTAT) | 0 |
| CGGGGACCATGGACCGGTTTTCCCGGTAATCCGTATTTGAT (site CGGGCACCTAT) | 0.00825 |
| CGGGGACCATGGACCGGTTTTCCCGGTAATCCGTATTTGAT (site CGGGGACCTAT) | 0 |
| CGGGGACCATGGACCGGTTTTCCCGGTAATCCGTATTTGAT (site CGGGTACCTAT) | 0 |
| CGGGGACCATGGACCGGTTTTCCCGGTAATCCGTATTTGGG (site CGAGGACCTCC) | 0.0137 |
| CGGGGACCATGGACCGGTTTTCCCGGTAATCCGTATTTGGG (site CGCGGACCTCC) | 0.0363 |
| CGGGGACCATGGACCGGTTTTCCCGGTAATCCGTATTTGGG (site CGGGGACCTCC) | 0.0134 |
| CGGGGACCATGGACCGGTTTTCCCGGTAATCCGTATTTGGG (site CGTGGACCTCC) | 0.00366 |
| CGGGGCGCATGGACCGGTTTTCCCGGTAATCCGTATTTGAA (site CGGGGCGCTTT) | 1.26 |
| CGGGGCGCATGGACCGGTTTTCCCGGTAATCCGTATTTGGC (site CGGGGCGCTGC) | 3.06 |
| CGGGGCTCATGGACCGGTTTTCCCGGTAATCCGTATTTGCA (site CGGGGCTCTTG) | 2.79 |
| CGGGGTCCATGGACCGGTTTTCCCGGTAATCCGTATTTGAT (site CGGGGTCCTAT) | 0 |
| CGGGTTGCATGGACCGGTTTTCCCGGTAATCCGTATTTGGT (site CGGGTTGCTAC) | 1.77 |
| CGGTACCCATGGACCGGTTTTCCCGGTAATCCGTATTTGAG (site CGGTACCCTCT) | 0.188 |
| CGGTCACCATGGACCGGTTTTCCCGGTAATCCGTATTTGTA (site CGGTCACCTTA) | 0 |
| CGGTCATCATGGACCGGTTTTCCCGGTAATCCGTATTTGCA (site CGATCATCTAG) | 0.01 |
| CGGTCATCATGGACCGGTTTTCCCGGTAATCCGTATTTGCA (site CGGTCATCTTG) | 0.39 |
| CGGTCCTCATGGACCGGTTTTCCCGGTAATCCGTATTTGCA (site CGGTCCTCTTG) | 0 |
| CGGTCTGCATGGACCGGTTTTCCCGGTAATCCGTATTTGAG (site CGGTCTGCTCT) | 0.251 |
| CGGTTGCCATGGACCGGTTTTCCCGGTAATCCGTATTTGGC (site CGGTTGCCTGC) | 0 |
| CGTAATCCATGGACCGGTTTTCCCGGTAATCCGTATTTGAT (site CGGAATCCTAA) | 0 |

| Sequence | recombinant UMI read abundance (log10) |
| --- | --- |
| CGTAATCCATGGACCGGTTTTCCCGGTAATCCGTATTTGAT (site CGTAATCCTAT) | 0.697 |
| CGTAATCCATGGACCGGTTTTCCCGGTAATCCGTATTTGTC (site CGGAATCCTAA) | 0 |
| CGTAATCCATGGACCGGTTTTCCCGGTAATCCGTATTTGTC (site CGTAATCCTGA) | 1.47 |
| CGTACACCATGGACCGGTTTTCCCGGTAATCCGTATTTGAC (site AGTACACCTGT) | 0 |
| CGTACACCATGGACCGGTTTTCCCGGTAATCCGTATTTGAC (site CGTACACCTGT) | 0 |
| CGTACACCATGGACCGGTTTTCCCGGTAATCCGTATTTGAC (site GGTACACCTGT) | 0 |
| CGTACACCATGGACCGGTTTTCCCGGTAATCCGTATTTGAC (site TGTACACCTGT) | 0 |
| CGTACCGCATGGACCGGTTTTCCCGGTAATCCGTATTTGTC (site CGTACCGCTGA) | 2.78 |
| CGTAGATCATGGACCGGTTTTCCCGGTAATCCGTATTTGCA (site CGTAGATCTTG) | 2.44 |
| CGTAGTCCATGGACCGGTTTTCCCGGTAATCCGTATTTGTT (site CGGAATCCTAA) | 0 |
| CGTAGTCCATGGACCGGTTTTCCCGGTAATCCGTATTTGTT (site CGTAGTCCTAA) | 0.247 |
| CGTATACCATGGACCGGTTTTCCCGGTAATCCGTATTTGAA (site CGTATACCTTT) | 0.0161 |
| CGTATGGCATGGACCGGTTTTCCCGGTAATCCGTATTTGTG (site CGTATGGCTCA) | 1.33 |
| CGTATGTCATGGACCGGTTTTCCCGGTAATCCGTATTTGGT (site CGTATGTCTAC) | 1.59 |
| CGTATTCCATGGACCGGTTTTCCCGGTAATCCGTATTTGTG (site CGTATTCCTCA) | 0.0112 |
| CGTCACTCATGGACCGGTTTTCCCGGTAATCCGTATTTGGC (site CGTCACTCTGC) | 2.8 |
| CGTCCAACATGGACCGGTTTTCCCGGTAATCCGTATTTGTA (site AGTCCAACTTA) | 0.00336 |
| CGTCCAACATGGACCGGTTTTCCCGGTAATCCGTATTTGTA (site CGTCCAACTTA) | 1.61 |
| CGTCCAACATGGACCGGTTTTCCCGGTAATCCGTATTTGTA (site GGTCCAACTTA) | 0.0127 |
| CGTCCAACATGGACCGGTTTTCCCGGTAATCCGTATTTGTA (site TGTCCAACTTA) | 0.0409 |
| CGTCTAGCATGGACCGGTTTTCCCGGTAATCCGTATTTGGC (site CGTCTAGCTGC) | 2.07 |
| CGTCTCACATGGACCGGTTTTCCCGGTAATCCGTATTTGGT (site CGTCTCACTAC) | 1.62 |
| CGTCTTACATGGACCGGTTTTCCCGGTAATCCGTATTTGTA (site CGTCTTACTTA) | 0.00853 |
| CGTGGAACATGGACCGGTTTTCCCGGTAATCCGTATTTGCT (site CGTGGAACTAA) | 0.202 |
| CGTGGAACATGGACCGGTTTTCCCGGTAATCCGTATTTGCT (site CGTGGAACTAC) | 0.00778 |

| Sequence | recombinant UMI read abundance (log10) |
| --- | --- |
| CGTGGAACATGGACCGGTTTTCCCGGTAATCCGTATTTGCT (site CGTGGAACTAG) | 2.18 |
| CGTGGAACATGGACCGGTTTTCCCGGTAATCCGTATTTGCT (site CGTGGAACTAT) | 0.45 |
| CGTGGAACATGGACCGGTTTTCCCGGTAATCCGTATTTGTA (site CGTGGAACTAA) | 0.00446 |
| CGTGGAACATGGACCGGTTTTCCCGGTAATCCGTATTTGTA (site CGTGGAACTCA) | 0.0215 |
| CGTGGAACATGGACCGGTTTTCCCGGTAATCCGTATTTGTA (site CGTGGAACTGA) | 0 |
| CGTGGAACATGGACCGGTTTTCCCGGTAATCCGTATTTGTA (site CGTGGAACTTA) | 2.24 |
| CGTGTTACATGGACCGGTTTTCCCGGTAATCCGTATTTGAT (site CGTGTTACTAT) | 0.962 |
| CGTTAAACATGGACCGGTTTTCCCGGTAATCCGTATTTGAG (site CGTTAAACTCT) | 1.31 |
| CGTTAAACATGGACCGGTTTTCCCGGTAATCCGTATTTGAG (site CGTTACACTCT) | 0 |
| CGTTAAACATGGACCGGTTTTCCCGGTAATCCGTATTTGAG (site CGTTAGACTCT) | 0.00692 |
| CGTTAAACATGGACCGGTTTTCCCGGTAATCCGTATTTGAG (site CGTTATACTCT) | 0.01 |
| CGTTAGACATGGACCGGTTTTCCCGGTAATCCGTATTTGAA (site CGTTAGACTAT) | 0.0102 |
| CGTTAGACATGGACCGGTTTTCCCGGTAATCCGTATTTGAA (site CGTTAGACTCT) | 0.00762 |
| CGTTAGACATGGACCGGTTTTCCCGGTAATCCGTATTTGAA (site CGTTAGACTGT) | 0 |
| CGTTAGACATGGACCGGTTTTCCCGGTAATCCGTATTTGAA (site CGTTAGACTTT) | 1.33 |
| CGTTAGGCATGGACCGGTTTTCCCGGTAATCCGTATTTGCT (site CGTTAGGCTAG) | 0.924 |
| CGTTAGGCATGGACCGGTTTTCCCGGTAATCCGTATTTGCT (site CGTTCGGCTAG) | 0.00474 |
| CGTTAGGCATGGACCGGTTTTCCCGGTAATCCGTATTTGCT (site CGTTGGGCTAG) | 0 |
| CGTTAGGCATGGACCGGTTTTCCCGGTAATCCGTATTTGCT (site CGTTTGGCTAG) | 0.00436 |
| CGTTCGGCATGGACCGGTTTTCCCGGTAATCCGTATTTGTC (site CGTTCGGCTGA) | 0 |
| CGTTGCACATGGACCGGTTTTCCCGGTAATCCGTATTTGGG (site CGTTGCACTCC) | 0.0529 |
| CGTTGGACATGGACCGGTTTTCCCGGTAATCCGTATTTGAG (site CGTTAGACTCT) | 0.878 |
| CGTTGGACATGGACCGGTTTTCCCGGTAATCCGTATTTGAG (site CGTTCGACTCT) | 0.022 |
| CGTTGGACATGGACCGGTTTTCCCGGTAATCCGTATTTGAG (site CGTTGGACTCT) | 1.36 |
| CGTTGGACATGGACCGGTTTTCCCGGTAATCCGTATTTGAG (site CGTTTGACTCT) | 0.0464 |
